Experimental findings from patent US20100035943A1, “Oxa-and thiadiazoles and their use as metalloproteinase inhibitors” (VERNALIS (OXFORD) LTD, priority 2002, published 2010) are described below.

pIC50: −log10 of the molar value.

Assay type in all cases: biochemical
In one experiment the target is 92 kDa gelatinase (MMP9) (Homo sapiens, UniProt P14780). As to the kind of experiment: MMP9 enzyme inhibition assay (fluorogenic peptide substrate McaPLGLDpaAR). The following applies: recombinant human 92 kDa gelatinase, 37° C., 2 hours. As to the method: Compounds were tested for inhibitory activity against 92 kDa gelatinase (MMP9) in an assay using a coumarin-labelled peptide substrate, (7-methoxycoumarin-4-yl)acetyl-Pro-Leu-Gly-Leu-(3-[2,4-dinitrophenyl]-L-2,3-diaminopropionyl)-Ala-Arg-NH2 (McaPLGLDpaAR) (Knight et al, FEBS Lett. 1992; 263-266).
(§1) Stock solutions were made up as follows: • Assay Buffer: 100 mM Tris-HCl pH 7.6 containing 100 mM NaCl, 10 mM CaCl2, and 0.05% Brij 35 • Substrate: 0.4 mM McaPLGLDpaAR (from Bachem) (0.437 mg/ml) stock solution in 100% DMSO (stored at −20° C.). Dilute to 8 μM in assay buffer. • Enzyme: Recombinant human 92 kDa gelatinase (MMP-9; APMA (4-aminophenyl • mercuric acetate)—activated if necessary) appropriately diluted in assay buffer.
(§2) Test Compounds were prepared initially as 10 mM compound solution in 100% DMSO, diluted to 1 mM in 100% DMSO, then serially diluted 3-fold in 100% DMSO across columns 1-10 of a 96-well microtitre plate Assay concentration range, 100 μM (column 1) to 5.1 nM (column 10)
(§3) The assay was performed in a total volume of 100 μl per well in 96-well microtitre plates. Activated enzyme (20 μl) was added to the wells followed by 20 μl of assay buffer. Appropriate concentrations of test compounds dissolved in 10 μl of DMSO were then added followed by 50 μl of McaPLGLDpaAR (8 μM, prepared by dilution of DMSO stock in assay buffer). For each assay ten concentrations of test compound were examined in duplicate. Control wells lack either enzyme or test compound. The reactions were incubated at 37° C. for 2 hours. The fluorescence at 405 nm was measured immediately with an SLT Fluostar fluorometer (SLT Labinstruments GmbH, Grödig, Austria) using 320 nm excitation, without stopping the reaction.
(§4) The effect of the test compound was determined from the dose response curve generated by the 10 duplicate concentrations of inhibitor. The IC50 (the concentration of compound required to give a 50% decrease in enzyme activity) was obtained by fitting data to the equation, Y=a+((b−a)/(1+(c/X)^d)). (Y=inhibition achieved for a particular dose; X=the dose in nM; a=minimum y or zero % inhibition; b=maximum y or 100% inhibition; c=is the IC50; d=is the slope). The result was rounded to one significant figure.

Another experiment addresses metalloelastase (MMP12) (Homo sapiens, UniProt P39900). As to the kind of experiment: MMP12 enzyme inhibition assay (fluorogenic peptide substrate McaPLGLDpaAR). The following applies: protocol as for MMP9 assay. How it is done:
as §1, §2, §3, §4
Compounds were tested for inhibitory activity against metalloelastase (MMP12) in an assay using a coumarin-labelled peptide substrate, (7-methoxycoumarin-4-yl)acetyl-Pro-Leu-Gly-Leu-(3-[2,4-dinitrophenyl]-L-2,3-diaminopropionyl)-Ala-Arg-NH2 (McaPLGLDpaAR) (Knight et al, FEBS Lett. 1992; 263-266). The protocol for this assay was as described for the MMP9 assay above.

The target in the next experiment is T1, collagenase (MMP1) (Homo sapiens, UniProt P03956).
T1 sequence (P03956 100-469): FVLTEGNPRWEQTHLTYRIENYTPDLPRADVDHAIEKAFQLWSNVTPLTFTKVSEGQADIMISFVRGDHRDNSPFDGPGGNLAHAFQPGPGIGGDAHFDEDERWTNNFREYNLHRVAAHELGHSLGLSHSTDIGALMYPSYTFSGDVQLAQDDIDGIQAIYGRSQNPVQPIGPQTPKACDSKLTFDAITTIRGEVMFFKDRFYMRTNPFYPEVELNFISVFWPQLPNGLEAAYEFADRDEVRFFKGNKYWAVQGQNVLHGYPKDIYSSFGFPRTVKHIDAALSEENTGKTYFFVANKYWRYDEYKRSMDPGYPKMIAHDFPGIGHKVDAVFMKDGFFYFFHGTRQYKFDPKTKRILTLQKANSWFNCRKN
Kind of experiment: MMP1 enzyme inhibition assay (fluorogenic peptide substrate McaPLGLDpaAR). The following applies: protocol as for MMP9 assay. As to the method:
as §1, §2, §3, §4
• Compounds were tested for inhibitory activity against collagenase (MMP1) in an assay using a coumarin-labelled peptide substrate, (7-methoxycoumarin-4-yl)acetyl-Pro-Leu-Gly-Leu-(3-[2,4-dinitrophenyl]-L-2,3-diaminopropionyl)-Ala-Arg-NH2 (McaPLGLDpaAR) (Knight et al, FEBS Lett. 1992; 263-266). The protocol for this assay was as described for the MMP9 assay above.

metalloelastase (MMP12), sequence (P39900 106-470): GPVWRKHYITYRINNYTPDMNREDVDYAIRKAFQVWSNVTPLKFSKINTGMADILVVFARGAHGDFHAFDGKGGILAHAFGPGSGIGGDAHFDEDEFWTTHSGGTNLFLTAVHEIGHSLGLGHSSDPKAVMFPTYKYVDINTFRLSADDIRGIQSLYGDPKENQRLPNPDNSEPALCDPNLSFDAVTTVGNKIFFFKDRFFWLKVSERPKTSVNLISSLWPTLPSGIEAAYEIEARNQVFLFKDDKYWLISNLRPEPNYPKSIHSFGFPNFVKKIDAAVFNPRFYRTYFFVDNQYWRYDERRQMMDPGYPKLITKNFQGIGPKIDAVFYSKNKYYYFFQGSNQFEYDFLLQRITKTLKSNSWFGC
92 kDa gelatinase (MMP9), sequence (P14780 107-707 limits assumed): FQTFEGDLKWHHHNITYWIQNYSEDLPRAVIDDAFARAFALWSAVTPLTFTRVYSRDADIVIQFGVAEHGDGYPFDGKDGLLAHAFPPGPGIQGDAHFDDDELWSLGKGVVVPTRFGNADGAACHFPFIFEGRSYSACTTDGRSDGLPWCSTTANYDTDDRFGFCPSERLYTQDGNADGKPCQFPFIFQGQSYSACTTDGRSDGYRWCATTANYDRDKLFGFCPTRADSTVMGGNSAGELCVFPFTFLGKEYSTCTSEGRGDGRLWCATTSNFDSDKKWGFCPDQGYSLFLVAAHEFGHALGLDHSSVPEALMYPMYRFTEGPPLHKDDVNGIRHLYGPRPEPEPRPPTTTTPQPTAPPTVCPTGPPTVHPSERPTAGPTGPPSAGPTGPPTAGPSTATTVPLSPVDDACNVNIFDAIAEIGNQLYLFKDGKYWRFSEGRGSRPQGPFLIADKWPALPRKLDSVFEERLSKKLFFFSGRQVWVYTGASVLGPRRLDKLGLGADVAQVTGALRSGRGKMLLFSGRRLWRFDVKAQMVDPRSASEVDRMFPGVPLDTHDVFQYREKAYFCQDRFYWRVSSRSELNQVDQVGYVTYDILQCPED

With `CO[C@H](C(=O)NO)[C@@H](CC(C)C)C(=O)N[C@@H](Cc1ccccc1)c1nc(C)no1` [Example 25, 2S-Methoxy-5-methyl-3R-[1S-(3-methyl-[1,2,4]oxadiazol-5-yl)-2-phenyl-ethylcarbamoyl]-hexanohydroxamic Acid], the pIC50 on 92 kDa gelatinase (MMP9) is 6.00 to 7.00; on metalloelastase (MMP12), greater than 7.00; on collagenase (MMP1), 6.00 to 7.00.

As to `CC(C)C[C@@H](C(=O)N[C@H](c1noc(C(C)C)n1)C(C)(C)C)[C@H](O)C(=O)NO` [Example 4, 2S-Hydroxy-3R-[1S-(5-isopropyl-[1,2,4]oxadiazol-3-yl)-2,2-dimethyl-propylcarbamoyl]-5-methyl Hexanohydroxamic Acid], the pIC50 is 6.00 to 7.00 on 92 kDa gelatinase (MMP9), greater than 7.00 at metalloelastase (MMP12) and 6.00 to 7.00 against collagenase (MMP1).

Consider `CC(C)C[C@@H](C(=O)N[C@H](c1nc(C(C)C)no1)C(C)(C)C)[C@H](O)C(=O)NO` [Example 18, 2S-Hydroxy-3R-[1S-(3-isopropyl-[1,2,4]oxadiazol-3-yl)-2,2-dimethyl-propylcarbamoyl]-5-methyl Hexanohydroxamic Acid], for which the negative logarithm of the IC50 (pIC50) was 6.00 to 7.00 on 92 kDa gelatinase (MMP9), greater than 7.00 at metalloelastase (MMP12) and 6.00 to 7.00 against collagenase (MMP1).

As to `CC(C)Cc1nc([C@@H](NC(=O)[C@H](CC(C)C)[C@H](O)C(=O)NO)C(C)(C)C)no1` [Example 11, 2S-Hydroxy-3R-[1S-(5-isobutyl-[1,2,4]oxadiazol-3-yl)-2,2-dimethyl-propylcarbamoyl]-5-methyl Hexanohydroxamic Acid], the pIC50 at 92 kDa gelatinase (MMP9) is 5.00 to 6.00; against metalloelastase (MMP12) it was greater than 7.00; on collagenase (MMP1) it was 5.00 to 6.00.

On to `CC(C)C[C@@H](C(=O)N[C@H](c1noc(Cc2ccccc2)n1)C(C)(C)C)[C@H](O)C(=O)NO` [Example 10, 2S-Hydroxy-3R-[1S-(5-benzyl-[1,2,4]oxadiazol-3-yl)-2,2-dimethyl-propylcarbamoyl]-5-methyl Hexanohydroxamic Acid], for which the pIC50 at 92 kDa gelatinase (MMP9) is 5.00 to 6.00; against metalloelastase (MMP12), greater than 7.00; against collagenase (MMP1), 5.00 to 6.00.

Take `Cc1nc([C@@H](NC(=O)[C@H](CC(C)C)[C@H](O)C(=O)NO)C(C)(C)C)no1` [Example 17, 2S-Hydroxy-3R-[1S-(5-methyl-[1,2,4]oxadiazol-3-yl)-2,2-dimethyl-propylcarbamoyl]-5-methyl Hexanohydroxamic Acid]: the negative logarithm of the IC50 (pIC50) is 5.00 to 6.00 at 92 kDa gelatinase (MMP9), greater than 7.00 against metalloelastase (MMP12) and 6.00 to 7.00 against collagenase (MMP1).

Turning to `CC(C)C[C@@H](C(=O)N[C@H](c1nc(-c2ccccc2)no1)C(C)(C)C)[C@H](O)C(=O)NO` [Example 2, 3R-[2,2-Dimethyl-1S-(3-phenyl-[1,2,4]oxadiazol-5-yl)-propylcarbamoyl]-2S-hydroxy-5-methyl-hexanohydroxamic Acid], the negative-log IC50 (pIC50) at 92 kDa gelatinase (MMP9) was 6.00 to 7.00; against metalloelastase (MMP12), greater than 7.00; against collagenase (MMP1), 6.00 to 7.00.

Consider `CC(C)C[C@@H](C(=O)N[C@H](c1noc(C(C)(C)C)n1)C(C)(C)C)[C@H](O)C(=O)NO` [Example 12, 2S-Hydroxy-3R-[1S-(5-tert-butyl-[1,2,4]oxadiazol-3-yl)-2,2-dimethyl-propylcarbamoyl]-5-methyl Hexanohydroxamic Acid], for which the pIC50 at 92 kDa gelatinase (MMP9) was 6.00 to 7.00; against metalloelastase (MMP12), greater than 7.00; against collagenase (MMP1), 6.00 to 7.00.

Consider `CC(C)(C)[C@H](NC(=O)[C@H](CCCc1cc(C(F)(F)F)cc(C(F)(F)F)c1)[C@H](O)C(=O)NO)c1noc(-c2cccs2)n1` [Example 33, 2R-[3-(3,5-Bis-trifluoromethyl-phenyl)-propyl]-N1-[2,2-dimethyl-1S-(5-thiophen-2-yl-[1,2,4]oxadiazol-3-yl)-propyl]-3S, N4-dihydroxy-succinamide], for which the pIC50 on 92 kDa gelatinase (MMP9) is less than 5.00; against metalloelastase (MMP12), 6.00 to 7.00; against collagenase (MMP1), less than 5.00.

`C=CC[C@H](C(=O)NO)[C@@H](CC(C)C)C(=O)N[C@H](c1nc(C)no1)C(C)(C)C` [Example 23, 2S-Allyl-3R-[2,2-dimethyl-I S-(3-methyl-[1,2,4]oxadiazol-5-yl)-propylcarbamoyl]-5-methyl-hexanohydroxamic Acid]: the negative logarithm of the IC50 (pIC50) at 92 kDa gelatinase (MMP9) is greater than 7.00; at metalloelastase (MMP12) it was greater than 7.00; against collagenase (MMP1) it was 6.00 to 7.00.

In the case of `CC(C)C[C@@H](C(=O)N[C@H](c1noc(CC(C)(C)C)n1)C(C)(C)C)[C@H](O)C(=O)NO` [Example 14, 2S-Hydroxy-3R-[1S-(5-(2,2-dimethyl-propyl)-[1,2,4]oxadiazol-3-yl)-2,2-dimethyl-propylcarbamoyl]-5-methyl Hexanohydroxamic Acid], the pIC50 at 92 kDa gelatinase (MMP9) was 5.00 to 6.00; at metalloelastase (MMP12), greater than 7.00; against collagenase (MMP1), 5.00 to 6.00.

On to `CC(C)(C)[C@H](NC(=O)[C@H](CCCc1cc(C(F)(F)F)cc(C(F)(F)F)c1)[C@H](O)C(=O)NO)c1noc(-c2ccco2)n1` [Example 34, 2R-[3-(3,5-Bis-trifluoromethyl-phenyl)-propyl]-N1-[1S-(5-furan-2-yl-[1,2,4]oxadiazol-3-yl)-2,2-dimethyl-propyl]-3S,N4-dihydroxy-succinamide], for which the pIC50 at 92 kDa gelatinase (MMP9), on metalloelastase (MMP12) and against collagenase (MMP1) was less than 5.00 each time.

For `CC(C)C[C@@H](C(=O)N[C@H](c1noc(-c2ccccc2)n1)C(C)(C)C)[C@H](O)C(=O)NO` [Example 1, 3R-[2,2-Dimethyl-1 S-(5-phenyl-[1,2,4]oxadiazol-3-yl)-propylcarbamoyl]-2S-hydroxy-5-methyl-Hexanohydroxamic Acid], the results for the pIC50 at 92 kDa gelatinase (MMP9), against metalloelastase (MMP12) and against collagenase (MMP1) were 6.00 to 7.00, greater than 7.00 and 6.00 to 7.00, respectively.

For `CC(C)C[C@@H](C(=O)N[C@H](c1noc(C2CCCC2)n1)C(C)(C)C)[C@H](O)C(=O)NO` [Example 9, 2S-Hydroxy-3R-[1S-(5-cyclopentyl-[1,2,4]oxadiazol-3-yl)-2,2-dimethyl-propylcarbamoyl]-5-methyl Hexanohydroxamic Acid], the pIC50 is 5.00 to 6.00 at 92 kDa gelatinase (MMP9), greater than 7.00 against metalloelastase (MMP12) and 6.00 to 7.00 against collagenase (MMP1).

With `CC(C)C[C@H](CC(=O)NO)C(=O)N[C@H](c1nc(-c2ccccc2)no1)C(C)(C)C` [Example 24, 3R-[2,2-Dimethyl-1S-(3-phenyl-[1,2,4]oxadiazol-5-yl)-propylcarbamoyl]-5-methyl-hexanohydroxamic Acid], the negative-log IC50 (pIC50) at 92 kDa gelatinase (MMP9) was 5.00 to 6.00; against metalloelastase (MMP12), greater than 7.00; against collagenase (MMP1), 5.00 to 6.00.

By pIC50 is commonly meant the IC50 on a negative log10 scale, so that one unit is a factor of ten.
